The target in the test is T1, TG2 (human tissue transglutaminase) (Homo sapiens, UniProt P21980).
T1 construct: gene TGM2; recombinant, expressed in and purified from E. coli as previously described; catalytic Cys277
T1 sequence (P21980 2-687): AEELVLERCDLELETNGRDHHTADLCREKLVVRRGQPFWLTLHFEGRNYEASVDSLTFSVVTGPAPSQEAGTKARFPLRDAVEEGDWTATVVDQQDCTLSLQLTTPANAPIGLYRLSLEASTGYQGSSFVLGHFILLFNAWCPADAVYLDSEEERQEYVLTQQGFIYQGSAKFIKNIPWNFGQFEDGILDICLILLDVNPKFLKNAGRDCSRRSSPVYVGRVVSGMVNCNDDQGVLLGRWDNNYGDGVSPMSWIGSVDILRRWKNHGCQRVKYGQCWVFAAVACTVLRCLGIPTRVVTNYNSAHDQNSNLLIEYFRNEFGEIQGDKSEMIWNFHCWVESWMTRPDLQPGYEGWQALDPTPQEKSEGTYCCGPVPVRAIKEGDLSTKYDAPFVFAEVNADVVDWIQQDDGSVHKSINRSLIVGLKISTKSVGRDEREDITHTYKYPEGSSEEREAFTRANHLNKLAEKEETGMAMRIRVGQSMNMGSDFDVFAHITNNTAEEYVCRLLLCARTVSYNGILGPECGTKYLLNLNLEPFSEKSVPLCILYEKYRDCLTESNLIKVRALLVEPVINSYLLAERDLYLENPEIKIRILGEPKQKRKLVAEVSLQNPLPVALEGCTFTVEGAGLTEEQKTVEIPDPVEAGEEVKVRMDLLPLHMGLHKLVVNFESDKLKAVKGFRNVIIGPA
The test is described as follows: colorimetric AL5 hydrolysis at […] nm, Kitz and Wilson time-dependent inactivation, saturation fit. Type of test: biochemical. The following applies: covalent (Cys277), irreversible; 100 µM AL5, corrected for substrate competition; 50 mM MOPS pH 6.91, 15.5 mM CaCl2, 25 °C.
In the case of `C=CC(N)=O` [compound 8, acrylamide], the KI (inactivation) stood at 148 ± 68 µM. For `C=CC(=O)NCC(=O)N1CCN(C(=O)OC(C)(C)C)CC1` [compound 2, 2] the value was 129 ± 53 µM; for `C=CC(=O)NCC(N)=O` [compound 6, 6], 842 ± 25 µM. As for `C=CC(=O)NCC(=O)N1CCOCC1` [compound 5, 5], the figure is 487 ± 161 µM; as for `C=CC(=O)NCC(=O)N1CCN(C(C)=O)CC1` [compound 3, 3], 96 ± 17 µM.

Molecule `C=CC(=O)NCC(=O)N1CCN(C(=O)C23CC4CC(CC(C4)C2)C3)CC1` [compound 1, 1] returned a KI (inactivation) of 3.2 ± 1 µM.

As for `C=CC(=O)N1CCN(C(=O)C23CC4CC(CC(C4)C2)C3)CC1` [compound 4, 4], the KI (inactivation) was found to be 118 ± 59 µM.
